Source: the supplement of paper PMC10307832

Key:
Assay in all cases: relative viability (nuclei count vs DMSO), 5 days (fraction); higher = more cells survive
[1] = compound: COc1cc(-c2nn([C@H]3CC[C@H](N4CCN(C(C)=O)CC4)CC3)c3ncnc(N)c23)ccc1NC(=O)c1cc2ccccc2n1C + CS(=O)(=O)CCNCc1ccc(-c2ccc3ncnc(Nc4ccc(OCc5cccc(F)c5)c(Cl)c4)c3c2)o1 [Lapatinib] (partner 2 µM)
Summary of the method: (§1)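 Each reported value is a median over duplicate plates. It expresses relative viability: treated-well nuclei count divided by vehicle-well nuclei count. Lung cancer cell lines in 1536-well plates were dosed by pin tool a day after seeding, alone with one drug or with a fixed anchor-drug dose plus five library-drug doses (not always all listed) in √10 steps, and nuclei were counted after 5 days.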

[2] = compound: COc1cc(-c2nn([C@H]3CC[C@H](N4CCN(C(C)=O)CC4)CC3)c3ncnc(N)c23)ccc1NC(=O)c1cc2ccccc2n1C + CCNC(=O)c1noc(-c2cc(C(C)C)c(O)cc2O)c1-c1ccc(CN2CCOCC2)cc1 [Luminespib] (partner 0.01 µM)
Summary of the method: as §1

Midostaurin + Luminespib = compound: CO[C@@H]1[C@H](N(C)C(=O)c2ccccc2)C[C@H]2O[C@]1(C)n1c3ccccc3c3c4c(c5c6ccccc6n2c5c31)C(=O)NC4 [Midostaurin] + CCNC(=O)c1noc(-c2cc(C(C)C)c(O)cc2O)c1-c1ccc(CN2CCOCC2)cc1 [Luminespib] (partner 0.01 µM)
Summary of the method: as §1

Midostaurin + Pemetrexed = compound: CO[C@@H]1[C@H](N(C)C(=O)c2ccccc2)C[C@H]2O[C@]1(C)n1c3ccccc3c3c4c(c5c6ccccc6n2c5c31)C(=O)NC4 [Midostaurin] + Nc1nc2[nH]cc(CCc3ccc(C(=O)N[C@@H](CCC(=O)O)C(=O)O)cc3)c2c(=O)[nH]1 [Pemetrexed] (partner 0.2 µM)
Summary of the method: as §1

[3] = compound: COc1cc(-c2nn([C@H]3CC[C@H](N4CCN(C(C)=O)CC4)CC3)c3ncnc(N)c23)ccc1NC(=O)c1cc2ccccc2n1C + COc1cccc2cc(-c3nc([C@H]4CC[C@H](C(=O)O)CC4)n4ncnc(N)c34)[nH]c12 [OSI-027] (partner 0.5 µM)
Summary of the method: as §1

Cell Line	relative viability ([1]; first compound 0.0128 µM)	relative viability ([1]; first compound 0.04048 µM)	relative viability ([1]; first compound 0.128 µM)	relative viability ([1]; first compound 1.28 µM)	relative viability ([2]; first compound 0.0128 µM)	relative viability ([2]; first compound 0.04048 µM)	relative viability ([2]; first compound 0.128 µM)	relative viability ([2]; first compound 1.28 µM)	relative viability (Midostaurin + Luminespib; first compound 0.01 µM)	relative viability (Midostaurin + Luminespib; first compound 0.03162 µM)	relative viability (Midostaurin + Luminespib; first compound 0.1 µM)	relative viability (Midostaurin + Luminespib; first compound 0.3162 µM)	relative viability (Midostaurin + Pemetrexed; first compound 0.01 µM)	relative viability (Midostaurin + Pemetrexed; first compound 0.03162 µM)	relative viability (Midostaurin + Pemetrexed; first compound 0.1 µM)	relative viability (Midostaurin + Pemetrexed; first compound 0.3162 µM)	relative viability ([3]; first compound 0.0128 µM)	relative viability ([3]; first compound 0.04048 µM)	relative viability ([3]; first compound 0.128 µM)	relative viability ([3]; first compound 1.28 µM)
LXF-289	1.01	0.86	0.876	1.02	0.783	0.732	0.663	0.702	0.692	0.706	0.482	0.596	0.891	0.903	0.888	0.896	0.875	0.76	0.71	0.652
NCI-H23	1.28	1.03	1.07	1.09	0.198		0.201	0.191	0.263	0.251	0.227	0.197	0.635	0.671	0.533	0.458	0.646	0.368	0.578	0.415
NCI-H322M	0.627	0.679	0.621	0.474	0.887	0.935	0.756	0.483	0.826	0.829	0.969	1.23	0.692	0.527	0.677	0.677	0.584	0.509	0.5	0.526
NCI-H358	0.455	0.391	0.335	0.27	0.452	0.251	0.395	0.296	0.241	0.309	0.263	0.298	0.158	0.167	0.173	0.159	0.645	0.618	0.508	0.28
NCI-H460	1.05	0.994	0.964	0.741	0.0282	0.0389	0.0319	0.0347	0.0367	0.0356	0.0302	0.0369	0.0611	0.0661	0.0666	0.0626	0.609	0.584	0.623	0.395
NCI-H520	0.818	0.745	0.685	0.646	0.219	0.211	0.174	0.243	0.221	0.204	0.235	0.258	0.662	0.723	0.736	0.407	0.191	0.252	0.201	0.174
NCI-H596	0.933	1.2	0.933	0.842	1.06	1.2	0.893	0.583	1.13	1.17	0.869	1.18	0.528	0.551	0.488	0.551	0.681	0.526	0.641	0.441
NCI-H647	1.24	0.974	0.981	0.632	0.172	0.168	0.158	0.159	0.191	0.181	0.141	0.264	0.185	0.2	0.184	0.112	0.594	0.656	0.617	0.435
NCI-H650	1.14	1.36	0.843	0.837	0.731	0.861	0.941	0.754	0.76	0.826	0.8	0.771	0.906	0.892	0.99	0.686	0.56	0.798	0.524	0.458
NCI-H661	0.545	0.532	0.469	0.319	0.901	1.08	0.948	0.946	0.799	0.783	0.924	1.04	0.915	0.82	0.902	0.904	0.721	0.722	0.691	0.575
NCI-H838	1.06	1.02	0.913	0.629	0.343	0.303	0.243	0.261	0.32	0.362	0.322	0.299	0.238	0.236	0.208	0.216	0.38	0.375	0.422	0.359
NCI-H1355	1.11	0.928	0.952	0.897	0.798	0.7	0.726	0.639	0.682	0.762	0.666	0.702	1.04	1.07	1.14	1.09	0.47	0.315	0.507	0.433
NCI-H1395	0.939	1.09	0.881	0.782	0.631	0.651	0.646	0.398	0.837	0.702	0.573	0.665	0.791	1.09	0.748	0.846	0.573	0.674	0.723	0.556
NCI-H1437	0.901	0.91	0.77	0.764	1.24	1.16	1.12	1.08	1.02	1	1.03	1.1	0.311	0.3	0.332	0.323	0.796	0.992	0.861	0.838
NCI-H1563	1.01	0.961	0.822	0.681	0.535	0.55	0.525	0.5	0.505	0.515	0.501	0.492	0.681	0.748	0.749	0.809	0.711	0.86	0.848	0.59
